Experimental data: ChEMBL document CHEMBL1123584, “Xanthine functionalized congeners as potent ligands at A2-adenosine receptors” (J Med Chem, 1987)
Values belong to the compound of their own block, whether it stands above or below them.

Columns and labels:
Adenosine receptor A1 = molecular target: T1, Adenosine receptor A1 (Rattus norvegicus, UniProt P25099); test: Inhibition of [3H]- PIA binding at adenosine A1 receptor on rat cerebral cortex membranes.; type: cell membranes, Membrane
T1 sequence (P25099 whole entry): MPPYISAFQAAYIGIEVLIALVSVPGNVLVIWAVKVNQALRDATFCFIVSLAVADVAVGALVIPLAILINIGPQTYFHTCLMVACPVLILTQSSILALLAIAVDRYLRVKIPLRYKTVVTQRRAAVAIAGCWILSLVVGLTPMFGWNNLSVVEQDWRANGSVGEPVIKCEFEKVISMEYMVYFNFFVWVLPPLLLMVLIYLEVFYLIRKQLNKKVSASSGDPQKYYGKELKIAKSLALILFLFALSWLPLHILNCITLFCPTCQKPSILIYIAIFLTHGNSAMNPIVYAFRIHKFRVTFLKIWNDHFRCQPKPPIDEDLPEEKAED

[1] = Partition coefficient (logP); type: physicochemical; conditions: octanol/water
[2] = molecular target: T2, Adenosine A2 receptor (Homo sapiens) (UniProt P29275+P29274); test: Antagonism of NECA-induced stimulation of adenylate cyclase activity in human platelet membranes at A2-adenosine receptor; value ranges from 30-54; type: functional, cell membranes
[3] = molecular target: T2, Adenosine A2 receptor (Homo sapiens); test: Antagonism of NECA-induced stimulation of adenylate cyclase activity in human platelet membranes at A2-adenosine receptor; value ranges from 100-540; type: functional, cell membranes
[4] = molecular target: T2, Adenosine A2 receptor (Homo sapiens); test: Antagonism of NECA-induced stimulation of adenylate cyclase activity in human platelet membranes at A2-adenosine receptor; value ranges from […]-[…]; type: functional, cell membranes
[5] = molecular target: T2, Adenosine A2 receptor (Homo sapiens); test: Antagonism of NECA-induced stimulation of adenylate cyclase activity in human platelet membranes at A2-adenosine receptor; value ranges from 17-30; type: functional, cell membranes
[6] = molecular target: T2, Adenosine A2 receptor (Homo sapiens); test: Antagonism of NECA-induced stimulation of adenylate cyclase activity in human platelet membranes at A2-adenosine receptor; type: functional, cell membranes
[7] = molecular target: T2, Adenosine A2 receptor (Homo sapiens); test: Antagonism of NECA-induced stimulation of adenylate cyclase activity in human platelet membranes at A2-adenosine receptor; value ranges from 75-370; type: functional, cell membranes
[8] = molecular target: T2, Adenosine A2 receptor (Homo sapiens); test: Antagonism of NECA-induced stimulation of adenylate cyclase activity in human platelet membranes at A2-adenosine receptor; value ranges from 106-173; type: functional, cell membranes
[9] = molecular target: T2, Adenosine A2 receptor (Homo sapiens); test: Antagonism of NECA-induced stimulation of adenylate cyclase activity in human platelet membranes at A2-adenosine receptor; value ranges from 15-51; type: functional, cell membranes
[10] = molecular target: T2, Adenosine A2 receptor (Homo sapiens); test: Antagonism of NECA-induced stimulation of adenylate cyclase activity in human platelet membranes at A2-adenosine receptor; value ranges from 35-40; type: functional, cell membranes
[11] = molecular target: T2, Adenosine A2 receptor (Homo sapiens); test: Antagonism of NECA-induced stimulation of adenylate cyclase activity in human platelet membranes at A2-adenosine receptor; value ranges from 54-98; type: functional, cell membranes

Compound: CCCn1c(=O)c2[nH]c(-c3ccc(OCC(=O)NCCNC(=O)[C@@H](N)CCCCN)cc3)nc2n(CCC)c1=O
Ki (Adenosine receptor A1): 0.87 nM

Compound: Cn1c(=O)c2[nH]c(-c3ccc(OCC(=O)NCCN)cc3)nc2n(C)c1=O
logP [1]: -0.63

Compound: Cn1c(=O)c2nc(-c3ccc(OCC(=O)NCCN)cc3)[nH]c2n(C)c1=O
Kb [2]: 40 nM

Compound: CCn1c(=O)c2nc(-c3ccc(OCC(=O)NCCNC(=O)C(CCCCNC(=O)OCc4ccccc4)NC(=O)OC(C)(C)C)cc3)[nH]c2n(CC)c1=O (stereo not drawn)
Kb [3]: 230 nM

Compound: CCn1c(=O)c2nc(-c3ccc(OCC(=O)Nc4ccc(C)cc4)cc3)[nH]c2n(CC)c1=O
Kb [4]: 100 nM

Compound: CCn1c(=O)c2nc(-c3ccc(OCC(=O)NCCNC(=O)[C@@H](N)CCCCN)cc3)[nH]c2n(CC)c1=O
logP [1]: -1.2 | Kb [5]: 23 nM

Compound: Cn1c(=O)c2nc(-c3ccccc3)[nH]c2n(C)c1=O
Kb [6]: 1900 nM

Compound: CCn1c(=O)c2nc(-c3ccccc3)[nH]c2n(CC)c1=O
Kb [6]: 210 nM

Compound: CCn1c(=O)c2[nH]c(-c3ccc(OCC(=O)NCCN)cc3)nc2n(CC)c1=O
logP [1]: -0.06

Compound: CCn1c(=O)c2nc(-c3ccc(OCC(=O)Nc4ccc(CC(=O)NCCN)cc4)cc3)[nH]c2n(CC)c1=O
Kb [9]: 28 nM

Compound: CCCn1c(=O)c2[nH]c(-c3ccc(OCC(=O)NCCN)cc3)nc2n(CCC)c1=O [XANTHINE AMINE CONGENER]
logP [1]: 0.81

Compound: Cn1c(=O)c2nc(-c3ccc(OCC(=O)Nc4ccc(CC(=O)NCCN)cc4)cc3)[nH]c2n(C)c1=O
logP [1]: -0.05 | Kb [4]: 63 nM

Compound: CCn1c(=O)c2nc(-c3ccc(OCC(=O)Nc4ccc(CC(=O)OC)cc4)cc3)[nH]c2n(CC)c1=O
Kb [4]: 210 nM

Compound: CCCn1c(=O)c2nc(-c3ccc(OCC(=O)NCCNC(=O)[C@@H](N)CCCCN)cc3)[nH]c2n(CCC)c1=O
Kb [10]: 37 nM

Other lines, results leading:

Ki (Adenosine receptor A1): 140 nM
Compound: CCOC(=O)COc1ccc(-c2nc3c(=O)n(CC)c(=O)n(CC)c3[nH]2)cc1

Ki (Adenosine receptor A1): 13 nM
Compound: CCCn1c(=O)c2nc(-c3ccc(OCC(=O)OCC)cc3)[nH]c2n(CCC)c1=O

Kb [7]: 170 nM
Compound: CCC(=O)OCOc1ccc(-c2nc3c(=O)n(CC)c(=O)n(CC)c3[nH]2)cc1

Kb [4]: 21 nM
Compound: CCn1c(=O)c2nc(-c3ccc(OCC(=O)NCCN)cc3)[nH]c2n(CC)c1=O

Kb [8]: 135 nM
Compound: CCCn1c(=O)c2nc(-c3ccc(OCOC(=O)CC)cc3)[nH]c2n(CCC)c1=O

Ki (Adenosine receptor A1): 90 nM | Kb [11]: 73 nM
Compound: CCn1c(=O)c2nc(-c3ccc(OCC(=O)OC(C)C)cc3)[nH]c2n(CC)c1=O
